Measurements as given in ChEMBL document CHEMBL3593193, “Discovery of 3,6-dihydroimidazo[4,5-d]pyrrolo[2,3-b]pyridin-2(1H)-one derivatives as novel JAK inhibitors” (Bioorg Med Chem, 2015).

How the values were obtained:
[1] = molecular target: T1, Tyrosine-protein kinase JAK3 (Homo sapiens, UniProt P52333)
T1 sequence (P52333 whole entry): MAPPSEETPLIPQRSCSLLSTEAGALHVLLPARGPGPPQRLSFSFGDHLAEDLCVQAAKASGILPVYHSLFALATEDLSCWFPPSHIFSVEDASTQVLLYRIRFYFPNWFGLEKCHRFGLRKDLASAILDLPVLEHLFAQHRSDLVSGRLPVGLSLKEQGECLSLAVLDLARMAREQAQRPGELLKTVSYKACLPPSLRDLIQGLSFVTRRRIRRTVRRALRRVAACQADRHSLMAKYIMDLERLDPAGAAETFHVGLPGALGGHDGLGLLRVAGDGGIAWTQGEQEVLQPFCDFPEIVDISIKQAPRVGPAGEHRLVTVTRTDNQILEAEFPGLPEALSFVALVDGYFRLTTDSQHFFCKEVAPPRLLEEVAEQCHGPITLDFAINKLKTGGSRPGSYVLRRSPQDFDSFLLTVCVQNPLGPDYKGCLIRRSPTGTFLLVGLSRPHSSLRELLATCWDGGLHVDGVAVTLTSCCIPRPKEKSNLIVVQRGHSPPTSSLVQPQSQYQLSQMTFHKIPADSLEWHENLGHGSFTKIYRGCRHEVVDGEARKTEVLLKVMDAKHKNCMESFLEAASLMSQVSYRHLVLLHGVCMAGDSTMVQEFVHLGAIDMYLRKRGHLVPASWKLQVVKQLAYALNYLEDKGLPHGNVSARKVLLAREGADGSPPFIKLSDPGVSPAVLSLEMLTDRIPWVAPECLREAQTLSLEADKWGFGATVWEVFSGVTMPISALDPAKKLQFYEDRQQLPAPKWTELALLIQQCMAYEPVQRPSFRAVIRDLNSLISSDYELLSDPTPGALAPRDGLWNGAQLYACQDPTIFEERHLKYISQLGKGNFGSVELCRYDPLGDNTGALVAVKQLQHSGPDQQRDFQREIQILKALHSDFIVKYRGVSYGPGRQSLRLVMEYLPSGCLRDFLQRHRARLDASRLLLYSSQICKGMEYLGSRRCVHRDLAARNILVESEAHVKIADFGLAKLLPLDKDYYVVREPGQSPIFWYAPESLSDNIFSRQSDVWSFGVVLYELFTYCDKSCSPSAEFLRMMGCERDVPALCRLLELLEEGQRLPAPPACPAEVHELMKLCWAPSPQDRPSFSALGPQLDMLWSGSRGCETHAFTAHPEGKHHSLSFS
Description: Inhibition of human JAK3 kinase domain using biotin-Lyn-substrate-2 as substrate and ATP incubated for 1 hr by ELISA method

[2] = molecular target: Tyrosine-protein kinase JAK2 (Homo sapiens, UniProt O60674)
Sequence of Tyrosine-protein kinase JAK2 (O60674 whole entry): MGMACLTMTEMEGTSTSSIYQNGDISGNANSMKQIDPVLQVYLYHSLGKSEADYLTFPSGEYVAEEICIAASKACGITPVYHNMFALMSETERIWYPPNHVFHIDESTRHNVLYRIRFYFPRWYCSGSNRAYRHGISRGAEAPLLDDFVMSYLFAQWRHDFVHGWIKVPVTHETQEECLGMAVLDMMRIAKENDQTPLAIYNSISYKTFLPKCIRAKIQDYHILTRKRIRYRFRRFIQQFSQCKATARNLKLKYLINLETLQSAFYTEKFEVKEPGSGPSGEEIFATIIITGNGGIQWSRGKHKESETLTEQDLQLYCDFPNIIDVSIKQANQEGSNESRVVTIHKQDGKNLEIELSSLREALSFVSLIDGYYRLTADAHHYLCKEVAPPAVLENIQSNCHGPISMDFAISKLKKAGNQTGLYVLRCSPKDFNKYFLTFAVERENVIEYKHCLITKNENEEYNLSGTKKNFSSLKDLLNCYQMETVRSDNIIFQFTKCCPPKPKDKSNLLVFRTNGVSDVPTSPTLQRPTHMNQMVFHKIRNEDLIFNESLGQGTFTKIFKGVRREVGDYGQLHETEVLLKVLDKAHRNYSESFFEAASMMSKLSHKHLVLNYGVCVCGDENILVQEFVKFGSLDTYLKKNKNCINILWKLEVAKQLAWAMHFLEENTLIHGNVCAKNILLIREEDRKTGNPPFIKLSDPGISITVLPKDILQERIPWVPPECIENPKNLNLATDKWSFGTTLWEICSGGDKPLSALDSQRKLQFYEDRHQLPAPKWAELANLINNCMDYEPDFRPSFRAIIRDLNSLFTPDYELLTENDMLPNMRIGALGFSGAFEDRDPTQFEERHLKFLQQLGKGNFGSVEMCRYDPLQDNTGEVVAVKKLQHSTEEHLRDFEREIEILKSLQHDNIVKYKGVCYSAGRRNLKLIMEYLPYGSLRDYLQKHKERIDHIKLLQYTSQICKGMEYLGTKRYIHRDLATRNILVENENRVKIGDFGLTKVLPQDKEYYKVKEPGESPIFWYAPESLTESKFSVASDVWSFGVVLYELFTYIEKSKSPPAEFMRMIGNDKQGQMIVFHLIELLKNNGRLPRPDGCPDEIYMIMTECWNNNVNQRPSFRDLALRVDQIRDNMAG
Description: Inhibition of human JAK2 kinase domain using biotin-Lyn-substrate-2 as substrate and ATP incubated for 1 hr by ELISA method

[3] = molecular target: Tyrosine-protein kinase JAK1 (Homo sapiens, UniProt P23458)
Sequence of Tyrosine-protein kinase JAK1 (P23458 whole entry): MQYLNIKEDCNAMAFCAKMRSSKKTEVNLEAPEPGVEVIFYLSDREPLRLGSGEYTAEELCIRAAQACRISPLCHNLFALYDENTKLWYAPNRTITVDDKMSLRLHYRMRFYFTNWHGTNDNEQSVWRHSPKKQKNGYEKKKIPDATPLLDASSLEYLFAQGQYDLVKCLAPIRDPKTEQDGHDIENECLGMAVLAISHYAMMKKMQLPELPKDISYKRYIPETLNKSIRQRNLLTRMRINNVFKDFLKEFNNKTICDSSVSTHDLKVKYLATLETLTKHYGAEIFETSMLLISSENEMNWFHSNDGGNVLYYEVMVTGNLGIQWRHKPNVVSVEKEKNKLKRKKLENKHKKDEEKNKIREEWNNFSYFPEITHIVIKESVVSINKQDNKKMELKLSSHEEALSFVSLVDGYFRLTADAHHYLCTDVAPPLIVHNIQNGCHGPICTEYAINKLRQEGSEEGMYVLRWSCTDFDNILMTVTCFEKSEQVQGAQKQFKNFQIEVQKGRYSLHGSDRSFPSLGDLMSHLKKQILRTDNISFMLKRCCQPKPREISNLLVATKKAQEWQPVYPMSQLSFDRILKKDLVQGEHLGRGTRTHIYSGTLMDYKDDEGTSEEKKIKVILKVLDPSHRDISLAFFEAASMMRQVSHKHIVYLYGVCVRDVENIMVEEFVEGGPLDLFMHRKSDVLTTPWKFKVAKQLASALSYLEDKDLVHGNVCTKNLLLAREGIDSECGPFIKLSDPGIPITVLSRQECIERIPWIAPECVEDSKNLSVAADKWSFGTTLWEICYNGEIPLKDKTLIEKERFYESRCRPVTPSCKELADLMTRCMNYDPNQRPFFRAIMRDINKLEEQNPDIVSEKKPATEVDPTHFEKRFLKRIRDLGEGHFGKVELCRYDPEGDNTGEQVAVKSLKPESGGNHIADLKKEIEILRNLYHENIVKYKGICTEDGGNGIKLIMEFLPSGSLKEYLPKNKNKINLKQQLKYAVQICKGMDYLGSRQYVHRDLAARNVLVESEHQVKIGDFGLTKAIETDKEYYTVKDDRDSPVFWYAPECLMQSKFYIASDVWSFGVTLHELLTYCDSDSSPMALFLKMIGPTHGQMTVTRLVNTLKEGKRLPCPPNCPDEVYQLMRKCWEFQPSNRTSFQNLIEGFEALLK
Description: Inhibition of human JAK1 kinase domain using biotin-Lyn-substrate-2 as substrate and ATP incubated for 1 hr by ELISA method

cells = details: Rattus norvegicus, Lewis, T-cell, 72 h
Description: Inhibition of JAK1/JAK3 in Lewis rat splenocytes assessed as reduction in IL2-induced T cell proliferation incubated for 3 days by alamar blue assay

in vitro = details: Sprague-Dawley, rat, liver microsomes
CYP3A4 [4] = molecular target: T2, CYP3A4 (Homo sapiens, UniProt P08684); experiment: Time dependent inhibition of CYP3A4 in human liver microsomes assessed as remaining enzyme activity by measuring midazolam to 1'-hydroxymidazolam conversion at 5 uM pre-incubated for 30 mins before midazolam addition by LC-MS/MS method; assay type: ADME; details: probe midazolam (conversion to 1'-hydroxymidazolam), read-out: Activity
T2 sequence (P08684 whole entry): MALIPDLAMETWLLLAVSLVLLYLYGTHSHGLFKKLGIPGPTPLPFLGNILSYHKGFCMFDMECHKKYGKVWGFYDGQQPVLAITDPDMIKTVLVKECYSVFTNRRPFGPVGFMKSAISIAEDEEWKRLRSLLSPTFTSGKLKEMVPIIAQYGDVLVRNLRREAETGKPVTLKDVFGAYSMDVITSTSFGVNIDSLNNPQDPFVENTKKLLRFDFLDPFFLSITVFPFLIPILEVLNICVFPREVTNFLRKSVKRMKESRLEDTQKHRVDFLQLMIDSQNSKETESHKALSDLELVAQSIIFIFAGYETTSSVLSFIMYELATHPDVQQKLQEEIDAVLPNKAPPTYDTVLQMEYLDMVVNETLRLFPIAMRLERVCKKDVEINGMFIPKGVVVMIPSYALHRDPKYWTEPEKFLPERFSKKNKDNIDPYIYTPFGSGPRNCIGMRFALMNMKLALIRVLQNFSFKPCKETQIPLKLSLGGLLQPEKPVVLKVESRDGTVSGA

CYP3A4 [5] = molecular target: T2, CYP3A4; experiment: Reversible inhibition of CYP3A4 in human liver microsomes assessed as remaining enzyme activity by measuring midazolam to 1'-hydroxymidazolam conversion at 5 uM pre-incubated for 30 mins before midazolam addition by LC-MS/MS method; assay type: ADME; details: probe midazolam (conversion to 1'-hydroxymidazolam), read-out: Activity
Liver microsome = details: rat, microsomes, 0.5 h, 2 µM

Compound	IC50 [1]	IC50 [2]	IC50 [3]	IC50 (cells)	CLint scaled at 0.5 h, 2 µM (in vitro)	activity at 30 min, 5 µM (CYP3A4 [4])	activity at 30 min, 5 µM (CYP3A4 [5])	CLH (Liver microsome)
CN(c1ccnc2[nH]ccc12)C1CCCCC1	1100 nM	1800 nM	2900 nM	–	–	–	–	–
O=c1[nH]c2cnc3[nH]ccc3c2n1C1CCCCC1	54 nM	43 nM	79 nM	160 nM	153 mL/min/kg	–	–	–
O=c1[nH]c2cnc3[nH]ccc3c2n1C1CCCC1	180 nM	97 nM	110 nM	–	–	–	–	–
O=c1[nH]c2cnc3[nH]ccc3c2n1CC1CCCCC1	60 nM	88 nM	1000 nM	860 nM	802 mL/min/kg	–	–	–
C[C@@H]1CCCC[C@@H]1n1c(=O)[nH]c2cnc3[nH]ccc3c21	–	4.4 nM	14 nM	32 nM	300 mL/min/kg	49%	95%	–
C[C@H]1CCCC[C@H]1n1c(=O)[nH]c2cnc3[nH]ccc3c21	27 nM	17 nM	28 nM	110 nM	–	–	–	–
CC1CCCC(n2c(=O)[nH]c3cnc4[nH]ccc4c32)C1 (centres undefined)	21 nM	23 nM	430 nM	1000 nM	–	–	–	–
CC1CCC(n2c(=O)[nH]c3cnc4[nH]ccc4c32)CC1 (centres undefined)	42 nM	23 nM	24 nM	120 nM	–	–	–	–
CC1(C)CCCCC1n1c(=O)[nH]c2cnc3[nH]ccc3c21 (centres undefined)	69 nM	85 nM	90 nM	110 nM	–	–	–	–
CC[C@@H]1CCCC[C@@H]1n1c(=O)[nH]c2cnc3[nH]ccc3c21	3 nM	3.6 nM	18 nM	36 nM	> 1000 mL/min/kg	–	–	–
O=c1[nH]c2cnc3[nH]ccc3c2n1C1CCOCC1	270 nM	–	520 nM	1400 nM	–	90%	–	Stable
O=c1[nH]c2cnc3[nH]ccc3c2n1C1CCNCC1	1200 nM	1300 nM	–	2800 nM	–	–	–	–
CS(=O)(=O)N1CCC(n2c(=O)[nH]c3cnc4[nH]ccc4c32)CC1	710 nM	140 nM	140 nM	–	–	–	–	–
CS(=O)(=O)N1CCC[C@@H](n2c(=O)[nH]c3cnc4[nH]ccc4c32)C1	63 nM	82 nM	230 nM	1700 nM	–	–	–	–
CS(=O)(=O)N1CCC[C@H](n2c(=O)[nH]c3cnc4[nH]ccc4c32)C1	460 nM	850 nM	–	–	–	–	–	–
N#CCC(=O)N1CCC[C@@H](n2c(=O)[nH]c3cnc4[nH]ccc4c32)C1	28 nM	17 nM	20 nM	310 nM	–	–	–	–
O=c1[nH]c2cnc3[nH]ccc3c2n1C1CCCCCC1	22 nM	23 nM	30 nM	74 nM	272 mL/min/kg	–	–	–
C[C@@H]1CCN(C(=O)CC#N)C[C@@H]1n1c(=O)[nH]c2cnc3[nH]ccc3c21 (racemic)	1.1 nM	2.6 nM	1.5 nM	36 nM	–	86%	–	Stable
C[C@@H]1CCN(C(=O)CC#N)C[C@@H]1n1c(=O)n(C)c2cnc3[nH]ccc3c21 (racemic)	5 nM	7.3 nM	29 nM	158 nM	–	–	–	–
